Assay results as given in patent US9687483B2, “Treatment of cerebral cavernous malformations and cerebral aneurysms with Rho kinase inhibitors” (priority 2015, dated 2017).
Where “and” joins values, the source holds several entries; their conditions need not be identical. Equal entries are not always repeated. Where two headings read alike, the source gives them in different places. Blank lines part the entries; values can stand above or below the molecule they belong to.

Experiments:
[1] = known values for controls; cited from earlier work
in vitro [2] = details: human, Caco-2, pH 7.4
HUVEC cells [3] = test: Endothelial cell actin cytoskeleton, Rhodamine-phalloidin staining; format: cell-based, human; details: 10 μM or 25 μM
cadherin in HUVEC cells = test: Cadherin expression in HUVEC, Western blot; format: cell-based, human; details: 50 μM, 24 hr, vs control; p<0.05
occludin in HUVEC cells = test: Occludin expression in HUVEC, Western blot; format: cell-based, human; details: for Effect on junctional protein expression at lower dose: 25 μM
HUVEC cells [4] = test: In vitro endothelial tubulogenesis assay on ECMatrix; format: cell-based, human; details: 10 or 50 μM (or μg/mL); 6 hr to 16 hr; vs untreated cells
[5] = system: induced intracranial saccular aneurysms in Sprague Dawley rats; test: Prophylactic reduction of intracranial aneurysm burden in vivo; set-up: species or system rat; details: vs control rats
[6] = system: induced intracranial saccular aneurysms in Sprague Dawley rats; test: Reduction of prevalence/size of existing aneurysms in vivo; set-up: species or system rat
Caco-2 cell monolayers [7] = details: for Transport mechanism across Caco-2 monolayers: from B to A/A to B Papp ratios; for Caco-2 cell permeability (classification): from measured Papp values
[8] = molecular target: ROCK II recombinantly-produced kinase domain (Homo sapiens (Human), UniProt O75116); details: read-out: ROCK II IC50; ATP 10 μM, substrate 200 nM; Fasudil mean ± SD of 3-4 experiments; BA-1049 two individual experiments
[9] = system: ROCK II recombinantly-produced kinase domain; details: ROCK II versus ROCK I
[10] = molecular target: ROCK I recombinantly-produced kinase domain (Homo sapiens (Human), UniProt Q13464); details: read-out: ROCK I IC50; ATP 10 μM, substrate 200 nM; Fasudil mean ± SD of 3-4 experiments; BA-1049 two individual experiments
HUVEC cells [11] = system: HUVEC cells
Caco-2 cell monolayers [12] = test: Caco-2 permeability assay
in vitro [13] = details: human, plasma
[14] = both, human, 24 h, 35 µM, pH 7.4
[15] = both, human, plasma, 24 h, 35 µM, pH 7.4
[16] = human plasma, 24 hr dialysis, 37° C., mean of 2 replicates

ROCK I recombinantly-produced kinase domain, sequence (Q13464 76-338): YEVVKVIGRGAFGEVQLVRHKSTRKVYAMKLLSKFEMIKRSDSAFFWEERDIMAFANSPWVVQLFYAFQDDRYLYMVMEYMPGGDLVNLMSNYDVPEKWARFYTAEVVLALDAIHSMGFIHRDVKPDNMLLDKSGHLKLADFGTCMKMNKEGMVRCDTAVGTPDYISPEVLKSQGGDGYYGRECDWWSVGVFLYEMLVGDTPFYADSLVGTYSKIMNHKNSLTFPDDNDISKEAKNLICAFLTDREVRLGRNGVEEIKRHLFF

- Papp A→B at 60 min (in vitro [2]): 2.62 ± 0.81 ×10⁻⁶ cm/s
- Papp A→B at 60 min, 35 µM (in vitro [2]): 1.01 ± 0.146 ×10⁻⁶ cm/s
- Papp B→A at 60 min (in vitro [2]): 1.36 ± 0.362 ×10⁻⁶ cm/s
- Papp B→A at 60 min, 35 µM (in vitro [2]): 0.821 ± 0.362 ×10⁻⁶ cm/s
- efflux ratio at 60 min, 35 µM (in vitro [2]): 0.81
SMILES: OC[C@@H](O)[C@@H](O)[C@H](O)[C@H](O)CO [[^3H]-Mannitol, D-[1-^3H(N)]Mannitol]
- % absorption in humans [1]: 15%

- Transport mechanism across Caco-2 monolayers (Caco-2 cell monolayers [7]): passively transported
- Caco-2 cell permeability (classification) (Caco-2 cell monolayers [7]): high
- Bound (human plasma proteins; [14]): 19.2%
- Unbound (human plasma proteins; [15]): 81.8%
- Papp A→B at 60 min, 35 µM (in vitro [2]): 18.9 ×10⁻⁶ cm/s
- Papp B→A at 60 min, 35 µM (in vitro [2]): 18.5 ×10⁻⁶ cm/s
SMILES: O=S(=O)(c1cccc2cnccc12)N1CCCNCC1 [Fasudil]
- Effect on junctional (peripheral) actin distribution (HUVEC cells [3]): disrupted the peripheral actin to a greater extent than the stress fibers
- Cadherin increase (cadherin in HUVEC cells): 1.2 fold
- Effect on junctional protein expression at lower dose (occludin in HUVEC cells): no significant effect
- Occludin decrease (occludin in HUVEC cells; 50 μM, 24 hr, vs control, p<0.001): 50%
- Endothelial cell tube formation (HUVEC cells [4]): some tubes are visible but are not always closed and are thin
- Average aneurysm size and area [5]: reduces
- Level of inflammatory invasion in a given aneurysm [5]: reduces
- Number of iron deposits near a given aneurysm [5]: reduces
- Rho kinase activity in the endothelial and smooth muscle cells of the aneurysm wall [5]: reduces
- Total number of saccular aneurysms ([5]; daily or weekly dose for 2 mo): reduces
- Total number of saccular aneurysms in 6 mo and 8 mo rats ([6]; vs baseline (4 mo) results): reduces
- Average aneurysm size and area ([6]; vs control rats): reduces
- Level of inflammatory invasion in a given aneurysm ([6]; vs control rats): reduces
- Number of iron deposits near a given aneurysm ([6]; vs control rats): reduces
- Rho kinase activity in the endothelial/smooth muscle cells of the aneurysm wall ([6]; vs control rats): reduces
- Total number of saccular aneurysms ([6]; vs control rats): reduces

SMILES: CC(N)C1CCN(S(=O)(=O)c2cccc3cnccc23)CC1.Cl.Cl (racemic) [BA-1049]
- Effect on actin stress fibers (HUVEC cells [3]): disrupted stress fibers
- Effect on junctional (peripheral) actin distribution (HUVEC cells [3]): little to no effect
- Cadherin increase (cadherin in HUVEC cells): 1.2 fold
- Effect on junctional protein expression at lower dose (occludin in HUVEC cells): no significant effect
- Occludin increase (occludin in HUVEC cells; 50 μM, 24 hr, vs control, p<0.05): 1.3 fold
- Endothelial cell tube formation (HUVEC cells [4]): some tubes are visible but are not always closed and are thin
- IC50 [8]: 1600 nM and 940 nM
- Selectivity for Rock II [9]: 13.1 -fold
- IC50 [10]: 21000 nM
- Disruption of proliferation compared with Fasudil at a given concentration (HUVEC cells [11]; 72 hr): did not disrupt proliferation to the same extent as Fasudil
- Proliferation of endothelial cells (HUVEC cells [11]; 72 hr incubation): reduced proliferation
- Concentration at which decrease in cell proliferation appears (HUVEC cells [11]; 72 hr, p<0.05 or p<0.01): 1 µM
- Papp A to B (Caco-2 cell monolayers [7]; apical to basolateral, 60 min, pH 7.4): 10.7 ×10⁻⁶ cm/s
- Papp B to A (Caco-2 cell monolayers [7]; basolateral to apical, 60 min, pH 7.4): 14.1 ×10⁻⁶ cm/s
- Transport mechanism across Caco-2 monolayers (Caco-2 cell monolayers [7]): passively transported
- Caco-2 cell permeability (classification) (Caco-2 cell monolayers [7]): intermediate to high
- Bound (human plasma proteins; [16]): 7.26%
- Unbound (human plasma proteins; [16]): 92.7%
- B-A/A-B Papp Ratio (Caco-2 cell monolayers [12]): 1.31

- Bound (human plasma proteins; [14]): 91.3%
- Unbound (human plasma proteins; [15]): 8.67%
- Papp A→B at 60 min (in vitro [2]): 32.3 ± 5.4 ×10⁻⁶ cm/s
- Papp A→B at 60 min, 35 µM (in vitro [2]): 36 ± 1.65 ×10⁻⁶ cm/s
- Papp B→A at 60 min (in vitro [2]): 31 ± 5.27 ×10⁻⁶ cm/s
- Papp B→A at 60 min, 35 µM (in vitro [2]): 27.8 ± 3.68 ×10⁻⁶ cm/s
- fraction unbound (in vitro [13]): 0.121
SMILES: CC(C)NC[C@H](O)COc1cccc2ccccc12 [[^3H]-Propranolol, L-(−)-[4-^3H]propranolol]
